Data as given in patent US20090176839A1, “FORMULATIONS OF 3-(6-(1-(2,2-DIFLUOROBENZO[D][1,3]DIOXOL-5-YL) CYCLOPROPANECARBOXAMIDO)-3-METHYLPYRIDIN-2-YL)BENZOIC ACID” (priority 2007, published 2009).
Read-outs that look alike come from different tables or passages of the source.

How the values were obtained:
[1] = Oral pharmacokinetics of Compound 1 in fed or fasted male dogs at 10 mg/kg; format: in vivo, male beagle dogs; settings: for concentration at 48 hr: oral, read-out: Clast
Method: (§1) Non-validated research grade assays were used for these analyses. All pharmacokinetic studies were conducted using fed animals unless otherwise specified.
The oral pharmacokinetics of Compound 1 were determined under fed and fasted conditions in male beagle dogs following a single 10 mg/kg administration (Table 6). […] The tmax occurred sooner after administration in the fasted state (1.5 hours) than in the fed state (2.7 hours). The variability of the systemic exposure of Compound 1 was higher under fed conditions (CV of 67% for AUC0-INF) than under fasted conditions (CV of 27% for AUC0-INF), possibly due to changes in stomach emptying time under fed conditions.

[2] = test system: Chinese hamster ovary (CHO) cell; assay: Chinese hamster ovary (CHO) chromosome aberration assay; format: cell-based; settings: GLP
Method: The potential for genetic toxicology was tested using standard GLP bacterial mutation (Ames), Chinese hamster ovary (CHO) chromosome aberration, and in vivo mouse micronucleus assays: Compound 1 was negative in all tests. […] With the exception of the preliminary 7-day toxicity studies, all studies were performed according to GLP regulations.

[3] = test system: dogs; assay: 14-day repeat-dose oral toxicity study in dogs
Method: (§2) Repeat-dose oral toxicity studies of 7- and 14-days duration have been conducted in rats (up to 600 mg/kg/day) and dogs (up to 200 mg/kg/day).

[4] = target: T1, Thromboxane A2 (TXA2) receptor (TP receptor) (Homo sapiens, UniProt P21731); assay: Radiolabel binding counter screen (MDS Pharma Services)
T1 construct: MDS Pharma Services MDSPS PT#: 1083321
T1 sequence (P21731 1-343): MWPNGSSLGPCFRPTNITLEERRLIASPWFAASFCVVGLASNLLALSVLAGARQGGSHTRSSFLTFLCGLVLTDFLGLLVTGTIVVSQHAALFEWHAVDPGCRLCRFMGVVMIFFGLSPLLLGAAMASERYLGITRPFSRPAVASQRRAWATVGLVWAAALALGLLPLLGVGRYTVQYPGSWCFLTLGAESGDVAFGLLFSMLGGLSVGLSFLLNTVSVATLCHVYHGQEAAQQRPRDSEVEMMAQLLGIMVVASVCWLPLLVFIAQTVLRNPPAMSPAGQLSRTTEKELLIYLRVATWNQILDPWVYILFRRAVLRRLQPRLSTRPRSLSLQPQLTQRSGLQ
Description: Compound 1 was counter screened against a broad panel of enzymes and receptors using radiolabel binding studies (see MDS Pharma Services, LeadProfiling and SpectrumScreen, MDSPS PT#: 1083321).

[5] = Stability of 6 mg/mL aqueous methylcellulose suspension (HPLC, XRPD); format: physicochemical; settings: room temperature; for Peak purity %: 6 mg/mL aqueous methylcellulose suspension
Method: A 100 mL stock solution of 0.5% by weight methylcellulose was prepared by stirring 0.5 g of methylcellulose with 99.5 g of purified water until completely dissolved (approximately 24 hours). […] The desired amount of 0.5% methylcellulose stock solution for making a 6 mg/mL based on free base (6.48 mg/mL based on HCl salt) was transferred into the vial and sonicated for 20 minutes and homogenized for approximately 5 minutes.
The methylcellulose formulation was also subjected to HPLC analysis at 0 and 24 hours: […]

[6] = Solubility (statement); format: physicochemical; settings: aqueous medium
[7] = Single oral pharmacokinetics of the free form in suspension in male rats; format: in vivo, male Sprague Dawley rats; settings: for AUC(0-inf): free form suspension, mean (SD)
Method: The pharmacokinetics of Compound 1 were assessed in the same species used in the toxicology studies: CD-1 mice, Sprague Dawley rats and beagle dogs. The pharmacokinetics of Compound 1 were also assessed in cynomolgus monkeys.
as §1
At 600 mg/kg, the increase in systemic exposure was less than proportional to the increase in dose. Bioavailability ranged from 47% to ˜100% across the 1 to 600 mg/kg oral dose range in rats, indicating excellent absorption of the compound.

[8] = in vivo; settings: rat, po
Method: as §2

[9] = Toxicokinetics in 7-day dose range finding study in dogs; format: in vivo; settings: 100 mg/kg/day; for Cmax: dog, plasma, oral
Method: One dog per gender was dosed orally with the vehicle (0.5% methylcellulose+0.5% Tween80 in water), or 25, 50, or 100 mg/kg/day Compound 1 for 7 consecutive days. The dose volume was 5 mL/kg/day for all dose groups. Plasma samples were collected on Days 1 and 7 for TK analysis and viability, clinical observations, body weights, feed consumption, clinical pathology (termination), organ weights, macroscopic observations, and microscopic pathology were evaluated.
The plasma AUC0-24 data on Day 1 was consistent with previously conducted single dose studies of Compound 1 in the dog.

[10] = male, beagle, dog, plasma, po, 10 mg/kg, male dogs, Fasted
[11] = male, beagle, dog, plasma, po, 10 mg/kg, male dogs, Fed
[12] = Sprague Dawley, rat, plasma, po, male rats, free form, 1 mg/kg
[13] = Sprague Dawley, rat, plasma, po, male rats, free form, 30 mg/kg
[14] = Sprague Dawley, rat, plasma, po, male rats, free form, 150 mg/kg
[15] = Sprague Dawley, rat, plasma, po, male rats, free form, 300 mg/kg
[16] = Sprague Dawley, rat, plasma, po, male rats, free form, 600 mg/kg
[17] = male rats, free form, 150 mg/kg
[18] = male rats, free form, 300 mg/kg
[19] = male rats, free form, 600 mg/kg

With `Cc1ccc(NC(=O)C2(c3ccc4c(c3)OC(F)(F)O4)CC2)nc1-c1cccc(C(=O)O)c1` [Compound 1, 3-(6-(1-(2,2-difluorobenzo[d][1,3]dioxol-5-yl)cyclopropanecarboxamido)-3-methylpyridin-2-yl)benzoic acid] the clearance ([1]; dog) was “very low clearance”, the F ([1]; male dogs, 10 mg/kg, Fasted) was 53% and the tlast ([1]; male dogs, 10 mg/kg, Fasted) was 48 h. It also gave an F ([1]; male dogs, 10 mg/kg, Fed) of 53%, a tlast ([1]; male dogs, 10 mg/kg, Fed) of 48 h and a concentration at 48 hr ([1]; male, beagle, dog, plasma, 10 mg/kg, male dogs, 10 mg/kg, Fasted) of 66 ng/mL. The concentration at 48 hr ([1]; male, beagle, dog, plasma, 10 mg/kg, male dogs, 10 mg/kg, Fed) was 47 ng/mL, the half-life ([1]; male, beagle, dog, plasma, po, 10 mg/kg, male dogs, 10 mg/kg, Fasted, read-out: t1/2 (converted)) was 378 min and the half-life ([1]; male, beagle, dog, plasma, po, 10 mg/kg, male dogs, 10 mg/kg, Fed, read-out: t1/2 (converted)) was 396 min. It also gave an AUC(0-inf) [1, 10] of 35800 ng·h/mL, a Cmax [1, 10] of 7900 ng/mL and a Tmax [1, 10] of 1.5 h. For the same compound, the AUC(0-inf) [1, 11] was 35700 ng·h/mL, the Cmax [1, 11] was 4100 ng/mL and the Tmax [1, 11] was 2.7 h. For the same compound, the half-life ([1]; male, beagle, dog, plasma, po, administered orally to dogs, read-out: half-life) was 300 to 540 min, the bioavailability ([1]; male, beagle, plasma, po, dog, 10 mg/kg orally in a methylcellulose suspension) was 53% and the “clastogenicity (chromosome aberrations)” value [2] was “negative”. The “projected safety margin range from the dog NOAEL” value ([3]; assuming efficacious dose in dogs 0.91 mg/kg b.i.d. (Ctrough at EC90)) was 110 ×, the “low prostate:body weight and prostate:brain weight ratios vs. vehicle control group” value ([3]; male dogs, 14-day study, all dose levels) was 52-62% and the Ki [4] was about 3 µM. The Peak purity % ([5]; T(0)) was 99.41%, the Peak purity % ([5]; T(24 h)) was 99.37% and the “physically and chemically stable, time” value ([5]; methylcellulose formulation) was “at least 24 hrs”. The solubility [6] was “low solubility”, the concentration at 48 hr ([7]; Sprague Dawley, rat, plasma, oral, male rats, free form, 1 mg/kg, read-out: Clast) was 28.8 ng/mL and the concentration at 48 h ([7]; Sprague Dawley, rat, plasma, oral, male rats, free form, 30 mg/kg, read-out: Clast) was 44 ng/mL. It also gave a concentration at 72 hr ([7]; Sprague Dawley, rat, plasma, oral, male rats, free form, 150 mg/kg, read-out: Clast) of 51.6 ng/mL, a concentration at 48 hr ([7]; Sprague Dawley, rat, plasma, oral, male rats, free form, 300 mg/kg, read-out: Clast) of 1120 ng/mL and a concentration at 72 hr ([7]; Sprague Dawley, rat, plasma, oral, male rats, free form, 600 mg/kg, read-out: Clast) of 1240 ng/mL. It also gave an AUC(0-inf) ([7]; Sprague Dawley, rat, plasma, po, male rats, nominal dose 1 mg/kg) of 13.7 µg·h/mL, an AUC(0-inf) ([7]; Sprague Dawley, rat, plasma, po, male rats, nominal dose 30 mg/kg) of 369 µg·h/mL and an AUC(0-inf) ([7]; Sprague Dawley, rat, plasma, po, male rats, nominal dose 150 mg/kg) of 728 µg·h/mL. The AUC(0-inf) ([7]; Sprague Dawley, rat, plasma, po, male rats, nominal dose 300 mg/kg) was 2530 µg·h/mL, the AUC(0-inf) ([7]; Sprague Dawley, rat, plasma, po, male rats, nominal dose 600 mg/kg) was 3080 µg·h/mL and the Cmax [7, 12] was 1.1 µg/mL. It also gave a Tmax [7, 12] of 3 h, a Cmax [7, 13] of 28.2 µg/mL and a Tmax [7, 13] of 4 h. For the same compound, the Cmax [7, 14] was 54.7 µg/mL, the Tmax [7, 14] was 4.67 h and the Cmax [7, 15] was 181 µg/mL. For the same compound, the Tmax [7, 15] was 3.33 h, the Cmax [7, 16] was 203 µg/mL and the Tmax [7, 16] was 4.67 h. The F ([7]; male rats, free form, 1 mg/kg) was over 100%, the tlast ([7]; male rats, free form, 1 mg/kg) was 48 h and the F ([7]; male rats, free form, 30 mg/kg) was over 100%. For the same compound, the tlast ([7]; male rats, free form, 30 mg/kg) was 48 h, the F [7, 17] was 47% and the tlast [7, 17] was 72 h. It also gave an F [7, 18] of 81%, a tlast [7, 18] of 48 h and an F [7, 19] of 50%. For the same compound, the tlast [7, 19] was 72 h, the half-life ([7]; male, Sprague Dawley, rat, plasma, po, 1 mg/kg, male rats, free form, 1 mg/kg, read-out: t1/2 (converted)) was 459 min and the half-life ([7]; male, Sprague Dawley, rat, plasma, po, 30 mg/kg, male rats, free form, 30 mg/kg, read-out: t1/2 (converted)) was 410 min. The half-life ([7]; male, Sprague Dawley, rat, plasma, po, 150 mg/kg, male rats, free form, 150 mg/kg, read-out: t1/2 (converted)) was 484 min, the half-life ([7]; male, Sprague Dawley, rat, plasma, po, 300 mg/kg, male rats, free form, 300 mg/kg, read-out: t1/2 (converted)) was 352 min and the half-life ([7]; male, Sprague Dawley, rat, plasma, po, 600 mg/kg, male rats, free form, 600 mg/kg, read-out: t1/2 (converted)) was 449 min. The half-life ([7]; male, Sprague Dawley, rat, plasma, po, administered orally to rats, read-out: half-life) was 300 to 540 min, the half-life ([7]; male, Sprague Dawley, rat, plasma, po, male rats, 1 to 600 mg/kg oral dose range, read-out: terminal half-life) was 354 to 486 min and the bioavailability ([7]; male, Sprague Dawley, rat, plasma, rats, across the 1 to 600 mg/kg oral dose range) was 47 to 100%. The Tmax ([7]; male, Sprague Dawley, rat, plasma, rats, across the oral dose range, fed conditions) was 3 to 4.7 h, the clearance ([7]; rat) was “very low clearance” and the NOAEL at 14 days [8] was 600 mg/kg/day. It also gave an average plasma concentrations ([9]; female) of 38 µM, an average plasma concentrations ([9]; male) of 16 µM and a Cmax ([9]; female) of about 130 µM. The Cmax ([9]; male) was about 110 µM.
